Source: ChEMBL document CHEMBL1142788, “Synthesis and antibacterial activity of alkyl derivatives of the glycopeptide antibiotic A40926 and their amides” (2005)
Values after ≈ are worked out from the molar mass of the structure shown.

Columns and labels:
Enterococcus faecium [1] = experiment: Minimum inhibitory concentration against vancomycin-A Enterococcus faecium in the presence of 30% bovine serum (n=1) (range = 0.5-16mg/l); type: functional
[2] = system: Staphylococcus epidermidis; experiment: Minimum inhibitory concentration against methicillin-sensitive Staphylococcus epidermidis in the presence of 30% bovine serum; type: functional
Enterococcus faecium [3] = experiment: Minimum inhibitory concentration against vancomycin-sensitive Enterococcus faecium in the presence of 30% bovine serum(n=1); type: functional
[4] = system: Staphylococcus haemolyticus; experiment: Minimum inhibitory concentration against Staphylococcus haemolyticus in the presence of 30% bovine serum; type: functional
Enterococcus faecalis [5] = experiment: Minimum inhibitory concentration against vancomycin-A Enterococcus faecalis (n=4) (range = 0.25-8mg/L)
[6] = system: Staphylococcus epidermidis; experiment: Minimum inhibitory concentration against methicillin-resistant Staphylococcus epidermidis in the presence of 30% bovine serum; type: functional
Staphylococcus aureus [7] = experiment: Minimum inhibitory concentration against methicillin-resistant Staphylococcus aureus
Enterococcus faecalis [8] = experiment: Minimum inhibitory concentration against vancomycin-sensitive Enterococcus faecalis in the presence of 30% bovine serum (n=3) (range = <0.125-0.25); type: functional
Staphylococcus aureus [9] = experiment: Minimum inhibitory concentration against methicillin-sensitive Staphylococcus aureus
Enterococcus faecium [10] = experiment: Minimum inhibitory concentration against vancomycin-A Enterococcus faecium in the presence of 30% bovine serum (n=1) (range = 64>128mg/L); type: functional
Enterococcus faecalis [11] = experiment: Minimum inhibitory concentration against vancomycin-A Enterococcus faecalis in the presence of 30% bovine serum (n=4); type: functional
Enterococcus faecalis [12] = experiment: Minimum inhibitory concentration against vancomycin-sensitive Enterococcus faecalis in the presence of 30% bovine serum(n=3)(range = 0.5-1 mg/l); type: functional
Enterococcus faecalis [13] = experiment: Minimum inhibitory concentration against vancomycin-sensitive Enterococcus faecalis in the presence of 30% bovine serum(n=3); type: functional
Enterococcus faecium [14] = experiment: Minimum inhibitory concentration against vancomycin-A Enterococcus faecium in the presence of 30% bovine serum (n=1); type: functional
Enterococcus faecalis [15] = experiment: Minimum inhibitory concentration against vancomycin-A Enterococcus faecalis in the presence of 30% bovine serum(n=4) (range = 128>128 mg/L); type: functional
Enterococcus faecium [16] = experiment: Minimum inhibitory concentration against vancomycin-A Enterococcus faecium in the presence of 30% bovine serum (n=1) (range = 4>128mg/L); type: functional
Enterococcus faecalis [17] = experiment: Minimum inhibitory concentration against vancomycin-sensitive Enterococcus faecalis in the presence of 30% bovine serum(n=3)(range = 0.25-0.5mg/l); type: functional
Enterococcus faecalis [18] = experiment: Minimum inhibitory concentration against vancomycin-A Enterococcus faecalis in the presence of 30% bovine serum(n=4) (range = 64-128mg/L); type: functional
Enterococcus faecium [19] = experiment: Minimum inhibitory concentration against vancomycin-A Enterococcus faecium in the presence of 30% bovine serum in the presence of 30% bovine serum (n=1); type: functional
Enterococcus faecium [20] = experiment: Minimum inhibitory concentration against vancomycin-sensitive Enterococcus faecium in the presence of 30% bovine serum (n=1); type: functional
Enterococcus faecalis [21] = experiment: Minimum inhibitory concentration against vancomycin-sensitive Enterococcus faecalis in the presence of 30% bovine serum (n=3) (range = 8-4); type: functional
Enterococcus faecium [22] = experiment: Minimum inhibitory concentration against vancomycin-A Enterococcus faecium in the presence of 30% bovine serum (n=1) (range = 2-128mg/L); type: functional
Enterococcus faecalis [23] = experiment: Minimum inhibitory concentration against vancomycin-A Enterococcus faecalis (n=4) (range = 4-128mg/L)

Row | SMILES | MIC [2] | MIC (Enterococcus faecium [3]) | MIC [4] | MIC [6] | MIC (Staphylococcus aureus [7]) | MIC (Staphylococcus aureus [9]) | MIC (Enterococcus faecium [10]) | MIC (Enterococcus faecalis [11]) | MIC (Enterococcus faecalis [13]) | MIC (Enterococcus faecalis [15]) | also measured
1 | CCCCc1ccc(CNC2[C@H](Oc3c4cc5cc3Oc3ccc(cc3Cl)[C@@H](O)C3NC(=O)[C@H](NC(=O)[C@@H]5NC(=O)[C@H]5NC(=O)[C@@H](Cc6ccc(cc6)O4)NC(=O)[C@H](N(C)Cc4ccc(CCCC)cc4)c4ccc(O)c(c4)Oc4cc(O)c(Cl)c5c4)c4ccc(O)c(c4)-c4c(O[C@H]5O[C@H](CO)[C@@H](O)[C@H](O)[C@@H]5O)cc(O)cc4[C@@H](C(=O)NCCCN(C)C)NC3=O)OC(C(=O)NCCCN(C)C)C(O)[C@@H]2O)cc1 (stereo not given in full) | 0.25 mg/L | 0.5 mg/L | 2 mg/L | 2 mg/L | 2 mg/L (≈ 0.995 µM) | 1 mg/L (≈ 0.497 µM) |  |  |  |  | MIC (Enterococcus faecium [1]): 16 mg/L; MIC (Enterococcus faecalis [5]): 8 mg/L (≈ 3.98 µM); MIC (Enterococcus faecalis [8]): < 0.125 mg/L
2 | CN[C@H]1C(=O)N[C@@H]2Cc3ccc(cc3)Oc3cc4cc(c3O[C@@H]3OC(C(=O)O)C(O)[C@H](O)C3NCc3ccc5ccccc5c3)Oc3ccc(cc3Cl)[C@@H](O)C3NC(=O)[C@H](NC(=O)[C@@H]4NC(=O)[C@@H](NC2=O)c2cc(cc(O)c2Cl)Oc2cc1ccc2O)c1ccc(O)c(c1)-c1c(O[C@H]2O[C@H](CO)[C@@H](O)[C@H](O)[C@@H]2O)cc(O)cc1[C@@H](C(=O)O)NC3=O (stereo not given in full) | 2 mg/L | 2 mg/L | 32 mg/L | 16 mg/L | 1 mg/L (≈ 0.592 µM) | 2 mg/L (≈ 1.18 µM) | > 128 mg/L | 128 mg/L |  |  | MIC (Enterococcus faecalis [12]): 1 mg/L
3 | CN[C@H]1C(=O)N[C@@H]2Cc3ccc(cc3)Oc3cc4cc(c3O[C@@H]3OC(C(=O)NCCCN(C)C)C(O)[C@H](O)C3N)Oc3ccc(cc3Cl)[C@@H](O)C3NC(=O)[C@H](NC(=O)[C@@H]4NC(=O)[C@@H](NC2=O)c2cc(cc(O)c2Cl)Oc2cc1ccc2O)c1ccc(O)c(c1)-c1c(O[C@H]2O[C@H](CO)[C@@H](O)[C@H](O)[C@@H]2O)cc(O)cc1[C@@H](C(=O)NCCCN(C)C)NC3=O (stereo not given in full) | 1 mg/L | 1 mg/L | 0.05 mg/L |  | 2 mg/L (≈ 1.16 µM) | 1 mg/L (≈ 0.582 µM) |  |  | 1 mg/L | 128 mg/L | MIC (Enterococcus faecium [14]): > 128 mg/L
4 | CCCCc1ccc(CN(C)[C@H]2C(=O)N[C@@H]3Cc4ccc(cc4)Oc4cc5cc(c4O[C@@H]4OC(C(=O)O)C(O)[C@H](O)C4N)Oc4ccc(cc4Cl)[C@@H](O)C4NC(=O)[C@H](NC(=O)[C@@H]5NC(=O)[C@@H](NC3=O)c3cc(cc(O)c3Cl)Oc3cc2ccc3O)c2ccc(O)c(c2)-c2c(O[C@H]3O[C@H](CO)[C@@H](O)[C@H](O)[C@@H]3O)cc(O)cc2[C@@H](C(=O)O)NC4=O)cc1 (stereo not given in full) | 1 mg/L | 0.5 mg/L | 32 mg/L | 8 mg/L | 1 mg/L (≈ 0.589 µM) | 1 mg/L (≈ 0.589 µM) |  |  |  | 128 mg/L | MIC (Enterococcus faecium [16]): > 128 mg/L; MIC (Enterococcus faecalis [17]): 0.5 mg/L
5 | CCCCc1ccc(CNC2[C@H](Oc3c4cc5cc3Oc3ccc(cc3Cl)[C@@H](O)C3NC(=O)[C@H](NC(=O)[C@@H]5NC(=O)[C@H]5NC(=O)[C@@H](Cc6ccc(cc6)O4)NC(=O)[C@H](NC)c4ccc(O)c(c4)Oc4cc(O)c(Cl)c5c4)c4ccc(O)c(c4)-c4c(O[C@H]5O[C@H](CO)[C@@H](O)[C@H](O)[C@@H]5O)cc(O)cc4[C@@H](C(=O)O)NC3=O)OC(C(=O)O)C(O)[C@@H]2O)cc1 (stereo not given in full) | 0.25 mg/L | 2 mg/L | 16 mg/L | 4 mg/L | 0.25 mg/L (≈ 0.147 µM) | 0.25 mg/L (≈ 0.147 µM) | > 128 mg/L |  | < 0.125 mg/L |  | MIC (Enterococcus faecalis [18]): 128 mg/L
6 | CN[C@H]1C(=O)N[C@@H]2Cc3ccc(cc3)Oc3cc4cc(c3O[C@@H]3OC(C(=O)O)C(O)[C@H](O)C3N)Oc3ccc(cc3Cl)[C@@H](O)C3NC(=O)[C@H](NC(=O)[C@@H]4NC(=O)[C@@H](NC2=O)c2cc(cc(O)c2Cl)Oc2cc1ccc2O)c1ccc(O)c(c1)-c1c(O[C@H]2O[C@H](CO)[C@@H](O)[C@H](O)[C@@H]2O)cc(O)cc1[C@@H](C(=O)O)NC3=O (stereo not given in full) |  |  |  |  | 16 mg/L (≈ 10.3 µM) | 16 mg/L (≈ 10.3 µM) |  | > 128 mg/L |  |  | MIC (Enterococcus faecium [19]): > 128 mg/L; MIC (Enterococcus faecium [20]): 8 mg/L; MIC (Enterococcus faecalis [21]): 8 mg/L
7 | CN(Cc1ccc2ccccc2c1)[C@H]1C(=O)N[C@@H]2Cc3ccc(cc3)Oc3cc4cc(c3O[C@@H]3OC(C(=O)O)C(O)[C@H](O)C3NCc3ccc5ccccc5c3)Oc3ccc(cc3Cl)[C@@H](O)C3NC(=O)[C@H](NC(=O)[C@@H]4NC(=O)[C@@H](NC2=O)c2cc(cc(O)c2Cl)Oc2cc1ccc2O)c1ccc(O)c(c1)-c1c(O[C@H]2O[C@H](CO)[C@@H](O)[C@H](O)[C@@H]2O)cc(O)cc1[C@@H](C(=O)O)NC3=O (stereo not given in full) | 2 mg/L | 2 mg/L | 16 mg/L | 16 mg/L | 1 mg/L (≈ 0.546 µM) | 2 mg/L (≈ 1.09 µM) |  |  | < 0.125 mg/L |  | MIC (Enterococcus faecium [22]): > 128 mg/L; MIC (Enterococcus faecalis [23]): 128 mg/L (≈ 69.9 µM)
8 | CCCCOc1ccc(CNC2[C@H](Oc3c4cc5cc3Oc3ccc(cc3Cl)[C@@H](O)C3NC(=O)[C@H](NC(=O)[C@@H]5NC(=O)[C@H]5NC(=O)[C@@H](Cc6ccc(cc6)O4)NC(=O)[C@H](NC)c4ccc(O)c(c4)Oc4cc(O)c(Cl)c5c4)c4ccc(O)c(c4)-c4c(O[C@H]5O[C@H](CO)[C@@H](O)[C@H](O)[C@@H]5O)cc(O)cc4[C@@H](C(=O)O)NC3=O)OC(C(=O)O)C(O)[C@@H]2O)cc1 (stereo not given in full) | 1 mg/L | 1 mg/L | 32 mg/L | 16 mg/L | 1 mg/L (≈ 0.584 µM) | 1 mg/L (≈ 0.584 µM) | > 128 mg/L | 128 mg/L |  |  | MIC (Enterococcus faecalis [12]): 1 mg/L
9 | CN(C)CCCNC(=O)C1O[C@@H](Oc2c3cc4cc2Oc2ccc(cc2Cl)[C@@H](O)C2NC(=O)[C@H](NC(=O)[C@@H]4NC(=O)[C@H]4NC(=O)[C@@H](Cc5ccc(cc5)O3)NC(=O)[C@H](N(C)Cc3ccc(C(=O)Oc5ccccc5)cc3)c3ccc(O)c(c3)Oc3cc(O)c(Cl)c4c3)c3ccc(O)c(c3)-c3c(O[C@H]4O[C@H](CO)[C@@H](O)[C@H](O)[C@@H]4O)cc(O)cc3[C@@H](C(=O)NCCCN(C)C)NC2=O)C(NCc2ccc(C(=O)Oc3ccccc3)cc2)[C@@H](O)C1O (stereo not given in full) | 0.25 mg/L | 0.5 mg/L | 2 mg/L | 2 mg/L | 1 mg/L (≈ 0.467 µM) | 1 mg/L (≈ 0.467 µM) |  |  |  |  | MIC (Enterococcus faecium [1]): > 16 mg/L; MIC (Enterococcus faecalis [8]): 0.25 mg/L
10 | CN(Cc1ccc(-c2ccccc2)cc1)[C@H]1C(=O)N[C@@H]2Cc3ccc(cc3)Oc3cc4cc(c3O[C@@H]3OC(C(=O)O)C(O)[C@H](O)C3N)Oc3ccc(cc3Cl)[C@@H](O)C3NC(=O)[C@H](NC(=O)[C@@H]4NC(=O)[C@@H](NC2=O)c2cc(cc(O)c2Cl)Oc2cc1ccc2O)c1ccc(O)c(c1)-c1c(O[C@H]2O[C@H](CO)[C@@H](O)[C@H](O)[C@@H]2O)cc(O)cc1[C@@H](C(=O)O)NC3=O (stereo not given in full) | 2 mg/L | 0.5 mg/L | 32 mg/L | 16 mg/L | 1 mg/L (≈ 0.583 µM) | 1 mg/L (≈ 0.583 µM) |  |  |  | 128 mg/L | MIC (Enterococcus faecium [16]): > 128 mg/L; MIC (Enterococcus faecalis [17]): 0.5 mg/L
